Experimental data as given in US20160031868A1, “BENZIMIDAZOLONE DERIVATIVES AS BROMODOMAIN INHIBITORS” (GILEAD SCIENCES, INC., priority 2013, published 2016).
Read-outs that look alike come from different tables or passages of the source.

Legend:
BRD4-1 = target: T1, BRD4-1 (Homo sapiens, UniProt O60885); assay: BRD4-1 Ligand KI assay (TR-FRET displacement of Cy5 labeled probe); format: binding
T1 construct: made in house; host or cells: Escherichia coli
Protocol: Binding of the two tandem bromodomains, BRD4-I and BRD4-2, to a Cy5 labeled probe/ligand (Compound 201-A) were measured using a homogeneous time resolved fluorescence resonance energy transfer (TR-FRET) assay.
(§1) The labeled ligand specifically binds BRD4-1 and BRD4-2 and can be displaced by a small molecule inhibitor that shares a similar or overlapping binding site. BRD4-I and BRD4-2 were expressed and purified from Escherichia coli as N-terminal His6-tagged proteins. A Eu-cryptate labeled anti-His antibody (Perkin Elmer) was used to specifically bind BRD4. […] Assays were performed in 50 mM Hepes (pH 7.5), 150 mM NaCl, 0.1 mg/ml BSA, 0.01% (v/v) Brij, 0.5% (v/v) DMSO and 10 nM labeled ligand at the following concentrations for each BRD4 isoform: 2 nM BRD4-1 and 0.5 nM BRD4-2. After an assay reaction time of 60 minutes at 25° C., binding was measured with 2 nM Eu-cryptate labeled anti-His antibody. TR-FRET signal was detected on an Envision plate reader (Ex: 320 nm; Em: 615/665 nm; 100 μs delay and 200 μs read window). Data were normalized based on a positive (2 μM I-BET) and negative (DMSO) controls and IC50 values were calculated from the fit of the dose-response curves to a four-parameter equation. All IC50 values represent geometric mean values of a minimum of four determinations. The IC50 values were converted to Ki values (dissociation constant for BRD4-inhibitor complex) using the Cheng and Prusoff equation for a competitive inhibitor mode of action. These assays generally produced results within 3-fold of the reported mean.

BRD4-2 = target: T2, BRD4-2 (Homo sapiens, UniProt O60885); assay: BRD4-2 Ligand KI assay (TR-FRET displacement of Cy5 labeled probe); format: binding
T2 construct: made in house; host or cells: Escherichia coli
Protocol: as §1, with “BRD4-I” for “The labeled ligand specifically binds BRD4-1 and BRD4-2 and can be displaced by a small molecule inhibitor that shares a similar or overlapping binding site. BRD4-I”, “action.” for “action. These assays generally produced results within 3-fold of the reported mean.”

[1] = system: c-Myc produced in MM1S cells; assay: c-Myc down regulation assay (MSD ELISA) in MM1S cells; format: cell-based; settings: Homo sapiens, MM1.S, 24 hrs incubation, geometric mean, read-out: cMYC EC50
Protocol: An enzyme linked immunosorbent assay using the Meso Scale Diagnostic (MSD) technology was used to detect levels of c-Myc produced in MM1S cells (ATCC). MM1S cells were cultured in RPMI-1640 media (Corning), supplemented with 10% FBS (Hyclone), 1% penicillin-streptomycin (Cellgro), 2-mercaptoethanol (Gibco) and seeded onto 384-tissue culture treated filter binding plates (Millipore) at a density of 40K cells/well containing titrations of small molecule inhibitors or DMSO (0.4%) in a volume of 100 μl of media. After an incubation time of 24 hrs, cells were lysed (1× lysis buffer (Thermo) supplemented with protease and phosphatase inhibitor cocktail (Thermo)) and the plates centrifuged (1000 rpm, 1 min) to capture c-Myc on MSD plates coated with a monoclonal c-Myc antibody (Origene). Assay wells were washed (3× Invitrogen wash buffer) and probed with a polyclonal c-Myc antibody (Abcam) and MSD detection antibody solution in order to detect levels of c-Myc on the MSD platform. c-Myc capture was reported in pg/ml based on a standard curve using recombinant c-Myc protein (Prosci). EC50 values were calculated from the fit of the dose-response curves to a four-parameter equation. All EC50 values represent geometric mean values of a minimum of four determinations. These assays generally produced results within 3-fold of the reported mean.

[2] = MT-4 proliferation assay in 384-well format (Cell Titer Glo); format: cell-based, human; settings: human, MT-4 cells, Table 2, 50% decrease in luminescence signal, read-out: CC50 MT4 384
Protocol: Compounds were tested in a standardized high-throughput 384-well assay format. Each compound was serially diluted 3-fold in 100% DMSO in polypropylene 384-well plates using a Biomek FX Workstation, and 0.4 μL compound added to an assay plate containing 40 μL RPMI media. Compounds were arranged in a horizontal pattern, with 10 concentrations per compound, and 8 compounds added per plate. Due to low DMSO tolerability, the final DMSO concentration never exceeded 0.5% (v/v). Each assay plate contained 10 μM Puromycin and 0.5% DMSO in RPMI-1640 as positive and negative controls respectively. MT-4 cells (HTLV-1 transformed, human T lymphoblastoid cells, NIH Aids Reagent program) were added in volumes of 35 μL per well and 2,000 cells per well using a Biotek uFlow Workstation (Biotek, Winooski, Vt.), and the plates subsequently incubated for 5 days at 37° C. in an incubator set at 5% CO2 and 90% humidity.
After 5 days, 22 μL Cell Titer Glo (Promega) was added to the assay plates with a Biotek uFlow Workstation. Plates were subsequently placed on a Perkin Elmer Envision Plate Reader for 5 minutes before the luminescence signal was read. CC50 values were calculated from the compound concentration that caused a 50% decrease in luminescence signal, a measure of toxicity, and calculated by non-linear regression using Pipeline Pilot software (Accelrys, San Diego, Calif.).

[3] = 10 nM labeled ligand, 2 nM BRD4-1, Ki from IC50 by Cheng and Prusoff, read-out: BRD4-1 Ligand K1
[4] = 10 nM labeled ligand, 0.5 nM BRD4-2, Ki from IC50 by Cheng and Prusoff, read-out: BRD4-2 Ligand K2

Row | SMILES | Ki (BRD4-1; [3]) [nM] | Ki (BRD4-2; [4]) [nM] | EC50 [1] [nM] | CC50 at 5 days [2] [nM] | Ki (BRD4-1) [nM] | Ki (BRD4-2) [nM]
1 | Cc1noc(C)c1-c1cc(C(O)(c2ccccn2)c2ccc3ccc(F)cc3n2)c2[nH]c(=O)[nH]c2c1 (stereo not drawn) [Example 36, 6-(3,5-dimethylisoxazol-4-yl)-4-((7-fluoroquinolin-2-yl)(hydroxy)(pyridin-2-yl)methyl)-1H-benzo[d]imidazol-2(3H)-one] | 14.1 | 5.3 | 176 | 29.1 |  | 
2 | Cc1noc(C)c1-c1cc(C(O)(c2ccc(Cl)cn2)c2ccc(Cl)cn2)c2[nH]c(=O)[nH]c2c1 [Example 55, 4-(bis(5-chloropyridin-2-yl)(hydroxy)methyl)-6-(3,5-dimethylisoxazol-4-yl)-1H-benzo[d]imidazol-2(3H)-one] | 14.5 | 18.2 | 141 | 41 |  | 
3 | Cc1noc(C)c1-c1cc(-c2cccnc2C2CC2)c2[nH]c(=O)[nH]c2c1 [Example 73, 4-(2-cyclopropylpyridin-3-yl)-6-(3,5-dimethylisoxazol-4-yl)-1H-benzo[d]imidazol-2(3H)-one] | 34.2 | 24 | 154 | 61 |  | 
4 | Cc1noc(C)c1-c1cc(C(O)(c2cnccn2)c2c(F)cccc2F)c2[nH]c(=O)[nH]c2c1 (stereo not drawn) [Example 49, 4-((2,6-difluorophenyl)(hydroxy)(pyrazin-2-yl)methyl)-6-(3,5-dimethylisoxazol-4-yl)-1H-benzo[d]imidazol-2(3H)-one] | 8.1 |  |  | 9.7 |  | 
5 | Cc1noc(C)c1-c1cc(C(O)(c2ccc(F)cn2)c2c(F)cccc2F)c2[nH]c(=O)[nH]c2c1 (stereo not drawn) [Example 38, 4-((2,6-difluorophenyl)(5-fluoropyridin-2-yl)(hydroxy)methyl)-6-(3,5-dimethylisoxazol-4-yl)-1H-benzo[d]imidazol-2(3H)-one] | 7.8 | 4.4 | 84.7 | 29.7 |  | 
6 | Cc1noc(C)c1-c1cc(C(O)(c2ccccn2)c2ccc(Cl)cn2)c2[nH]c(=O)[nH]c2c1 (stereo not drawn) [Example 54, 4-((5-chloropyridin-2-yl)(hydroxy)(pyridin-2-yl)methyl)-6-(3,5-dimethylisoxazol-4-yl)-1H-benzo[d]imidazol-2(3H)-one] |  |  | 111 | 27.1 | 22.7 | 14.1
7 | Cc1noc(C)c1-c1cc(C(O)(CC(C)(C)C)c2ccccn2)c2[nH]c(=O)[nH]c2c1 (stereo not drawn) [Example 143, 6-(3,5-dimethylisoxazol-4-yl)-4-(1-hydroxy-3,3-dimethyl-1-(pyridin-2-yl)butyl)-1H-benzo[d]imidazol-2(3H)-one] | 29.3 | 8 | 118 | 20.4 |  | 
8 | Cc1noc(C)c1-c1cc(C(O)(c2cnccn2)c2c(F)cc(F)cc2F)c2[nH]c(=O)[nH]c2c1 (stereo not drawn) [Example 56, 6-(3,5-dimethylisoxazol-4-yl)-4-(hydroxy(pyrazin-2-yl)(2,4,6-trifluorophenyl)methyl)-1H-benzo[d]imidazol-2(3H)-one] | 6 | 3.6 | 40.9 | 24.8 |  | 
9 | Cc1noc(C)c1-c1cc(C(O)(c2ccccn2)c2ccccn2)c2[nH]c(=O)[nH]c2c1 [Example 133, 6-(3,5-dimethylisoxazol-4-yl)-4-(hydroxydi(pyridin-2-yl)methyl)-1H-benzo[d]imidazol-2(3H)-one] |  |  | 44.3 | 25.5 | 40.3 | 15.8
10 | Cc1noc(C)c1-c1cc(C(O)(c2ccccn2)C2CCCCC2)c2[nH]c(=O)[nH]c2c1 (stereo not drawn) [Example 144, 4-(cyclohexyl(hydroxy)(pyridin-2-yl)methyl)-6-(3,5-dimethylisoxazol-4-yl)-1H-benzo[d]imidazol-2(3H)-one] | 7.7 | 2.7 |  |  |  | 

Further molecules by falling Ki (BRD4-1; [3]), results first:

Row | Ki (BRD4-1; [3]) [nM] | Ki (BRD4-2; [4]) [nM] | EC50 [1] [nM] | SMILES | CC50 at 5 days [2] [nM] | Ki (BRD4-1) [nM] | Ki (BRD4-2) [nM]
11 | 69.9 | 5.3 | 74.4 | Cc1cccc(C(O)(c2cccc(C)n2)c2cc(-c3c(C)noc3C)cc3[nH]c(=O)[nH]c23)n1 [Example 134] | 19.1 |  | 
12 | 62 | 33.5 | 128 | Cc1noc(C)c1-c1cc(C(O)(c2ccccn2)c2ccccn2)c2[nH]c(=O)[nH]c2c1F [Example 169] | 41.4 |  | 
13 | 35.2 | 43.8 | 217 | Cc1noc(C)c1-c1cc(C(O)(CCC(F)(F)F)c2ccccn2)c2[nH]c(=O)[nH]c2c1 (stereo not drawn) [Example 140, 6-(3,5-dimethylisoxazol-4-yl)-4-(4,4,4-trifluoro-1-hydroxy-1-(pyridin-2-yl)butyl)-1H-benzo[d]imidazol-2(3H)-one] | 78.3 |  | 
14 | 17.3 | 4.6 | 73.8 | Cc1noc(C)c1-c1cc(C(O)(c2ccccc2)c2ccccn2)c2[nH]c(=O)[nH]c2c1 (stereo not drawn) [Example 149, 6-(3,5-dimethylisoxazol-4-yl)-4-(hydroxy(phenyl)(pyridin-2-yl)methyl)-H benzo[d]imidazol-2(3H)-one] | 17.5 |  | 
15 | 12.8 | 5 | 104 | Cc1noc(C)c1-c1cc(C(O)(c2ccc(F)cn2)c2cc(F)ccc2F)c2[nH]c(=O)[nH]c2c1 (stereo not drawn) [Example 41, 4-((2,5-difluorophenyl)(5-fluoropyridin-2-yl)(hydroxy)methyl)-6-(3,5-dimethylisoxazol-4-yl)-1H-benzo[d]imidazol-2(3H)-one] | 47.3 |  | 
16 | 8.9 | 6.4 | 135 | Cc1noc(C)c1-c1cc(C(O)(c2ccc(F)cn2)c2c(F)cc(F)cc2F)c2[nH]c(=O)[nH]c2c1 (stereo not drawn) [Example 52, 6-(3,5-dimethylisoxazol-4-yl)-4-((5-fluoropyridin-2-yl)(hydroxy)(2,4,6-trifluorophenyl)methyl)-1H-benzo[d]imidazol-2(3H)-one] | 36.1 |  | 
17 | 8.7 | 5.9 |  | Cc1noc(C)c1-c1cc(C(O)(c2cccnn2)c2c(F)cccc2F)c2[nH]c(=O)[nH]c2c1 (stereo not drawn) [Example 50, 4-((2,6-difluorophenyl)(hydroxy)(pyridazin-3-yl)methyl)-6-(3,5-dimethylisoxazol-4-yl)-1H-benzo[d]imidazol-2(3H)-one] | 16 |  | 
